Here are results for 23 molecules from US20080188503A1, “New Compounds II” (AstraZenaca AB, priority 2006, published 2008).

T1 sequence (P49841 whole entry): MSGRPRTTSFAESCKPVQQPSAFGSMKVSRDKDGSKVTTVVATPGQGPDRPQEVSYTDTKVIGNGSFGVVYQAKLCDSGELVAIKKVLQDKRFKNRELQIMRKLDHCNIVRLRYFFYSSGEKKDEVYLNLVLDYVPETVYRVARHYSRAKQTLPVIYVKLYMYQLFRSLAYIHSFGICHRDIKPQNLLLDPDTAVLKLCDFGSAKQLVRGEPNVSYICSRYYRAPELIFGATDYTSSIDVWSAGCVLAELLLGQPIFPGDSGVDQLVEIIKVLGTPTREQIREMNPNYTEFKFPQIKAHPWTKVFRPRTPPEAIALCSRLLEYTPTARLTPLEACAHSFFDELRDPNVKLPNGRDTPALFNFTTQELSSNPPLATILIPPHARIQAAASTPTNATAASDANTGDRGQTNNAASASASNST

This experiment concerns the target T1, recombinant human GSK3β (Homo sapiens, UniProt P49841).
T1 construct: purchased Dundee University, UK
As to the kind of experiment: GSK3β Scintillation Proximity Assay (ATP competition). Type of experiment: biochemical. Particulars: recombinant human GSK3β SPA; 1 μM ATP, 1 μM biotinylated peptide substrate; Ki calculated with Km of ATP 20 μM. Here is the method:
Determination of ATP Competition in Scintillation Proximity GSK3β Assay.
GSK3β Scintillation Proximity Assay.
The competition experiments were carried out in duplicate with 10 different concentrations of the inhibitors in clear-bottom microtiter plates (Wallac, Finland). A biotinylated peptide substrate, Biotin-Ala-Ala-Glu-Glu-Leu-Asp-Ser-Arg-Ala-Gly-Ser(PO3H2)-Pro-Gln-Leu (AstraZeneca, Lund), was added at a final concentration of 1 μM in an assay buffer containing 1 mU recombinant human GSK3β (Dundee University, UK), 12 mM morpholinepropanesulfonic acid (MOPS), pH 7.0, 0.3 mM EDTA, 0.01% β-mercaptoethanol, 0.004% Brij 35 (a […] detergent), 0.5% glycerol and 0.5 μg BSA/25 μl. The reaction was initiated by the addition of 0.04 μCi [γ-^33P]ATP (Amersham, UK) and unlabelled ATP at a final concentration of 1 μM and assay volume of 25 μl. After incubation for 20 minutes at room temperature, each reaction was terminated by the addition of 25 μl stop solution containing 5 mM EDTA, 50 μM ATP, 0.1% Triton X-100 and 0.25 mg streptavidin coated Scintillation Proximity Assay (SPA) beads (Amersham, UK). After 6 hours the radioactivity was determined in a liquid scintillation counter (1450 MicroBeta Trilux, Wallac). The inhibition curves were analysed by non-linear regression using GraphPad Prism, USA. The Km value of ATP for GSK3β, used to calculate the inhibition constants (Ki) of the various compounds, was 20 μM.
Consider `Cc1ncc(-c2nc(NC3CCN(S(=O)(=O)c4ccccc4)CC3)ncc2F)n1C1CCOCC1` [Example 43, 5-Fluoro-4-[2-methyl-1-(tetrahydro-2H-pyran-4-yl)-1H-imidazol-5-yl]-N-[1-(phenylsulfonyl)piperidin-4-yl]pyrimidin-2-amine], for which the Ki (in general, the equilibrium dissociation constant of an inhibitor or competing ligand from its target) is 0.053 µM.

For the molecule `Cc1ncc(-c2nc(Nc3ccc(CN4CCCOCC4)nc3)ncc2F)n1C1CCOCC1` [Example 21, 5-Fluoro-4-[2-methyl-1-(tetrahydro-2H-pyran-4-yl)-1H-imidazol-5-yl]-N-[6-(1,4 oxazepan-4-ylmethyl)pyridin-3-yl]pyrimidin-2-amine], the Ki is 0.079 µM.

`CCN(CCOC)Cc1ccc(Nc2ncc(F)c(-c3cnc(C)n3C3CCOCC3)n2)cn1` [Example 28, N-(6-{[Ethyl(2-methoxyethyl)amino]methyl}pyridin-3-yl)-5-fluoro-4-[2-methyl-1-(tetrahydro-2H-pyran-4-yl)-1H-imidazol-5-yl]pyrimidin-2-amine]: the Ki is 0.28 µM.

In the case of `Cc1ncc(-c2nc(Nc3ccncc3)ncc2F)n1C1CCOCC1` [Example 31, {5-Fluoro-4-[2-methyl-3-(tetrahydro-pyran-4-yl)-3H-imidazol-4-yl]-pyrimidin-2-yl}-pyridin-4-yl-amine], the Ki is 0.039 µM.

Regarding `COc1ccnc(Nc2ncc(F)c(-c3cnc(C)n3C3CCOCC3)n2)c1` [Example 6, 5-Fluoro-N-(4-methoxypyridin-2-yl)-4-[2-methyl-1-(tetrahydro-2H-pyran-4-yl)-1H-imidazol-5-yl]pyrimidin-2-amine], the Ki was 1.1 µM.

With `Cc1ncc(-c2nc(NC3CCOCC3)ncc2F)n1C1CCOCC1` [Example 34, 5-Fluoro-4-[2-methyl-1-(tetrahydro-2H-pyran-4-yl)-1H-imidazol-5-yl]-N-(tetrahydro-2H-pyran-4-yl)pyrimidin-2-amine], the Ki was 0.087 µM.

Take `Cc1ncc(-c2nc(Nc3ccc(CN4CCC(F)(F)CC4)nc3)ncc2F)n1C1CCOCC1` [Example 18, N-{6-[(4,4-Difluoropiperidin-1-yl)methyl]pyridin-3-yl}-5-fluoro-4-[2-methyl-1-(tetrahydro-2H-pyran-4-yl)-1H-imidazol-5-yl]pyrimidin-2-amine]: the Ki was 0.042 µM.

As to `Cc1ncc(-c2nc(NC3CCN(S(=O)(=O)Cc4ccccc4)CC3)ncc2F)n1C1CCOCC1` [Example 44, N-[1-(Benzylsulfonyl)piperidin-4-yl]-5-fluoro-4-[2-methyl-1-(tetrahydro-2H-pyran-4-yl)-1H-imidazol-5-yl]pyrimidin-2-amine], the Ki is 0.08 µM.

Regarding `Cc1ncc(-c2nc(Nc3ccc(CN4CCC4)nc3)ncc2F)n1C1CCOCC1` [Example 27, N-[6-(Azetidin-1-ylmethyl)pyridin-3-yl]-5-fluoro-4-[2-methyl-1-(tetrahydro-2H-pyran-4-yl)-1H-imidazol-5-yl]pyrimidin-2-amine], the Ki is 0.33 µM.

Turning to `Cc1ncc(-c2nc(NC3CCN(C(=O)OCc4ccccc4)CC3)ncc2F)n1C1CCOCC1` [Example 40, Benzyl 4-({5-fluoro-4-[2-methyl-1-(tetrahydro-2H-pyran-4-yl)-1H-imidazol-5-yl]pyrimidin-2-yl}amino)piperidine-1-carboxylate], the Ki is 0.031 µM.

Take `COc1cccc(Nc2ncc(F)c(-c3cnc(C)n3C3CCOCC3)n2)n1` [Example 3, 5-Fluoro-N-(6-methoxypyridin-2-yl)-4-[2-methyl-1-(tetrahydro-2H-pyran-4-yl)-1H-imidazol-5-yl]pyrimidin-2-amine]: the Ki is 0.53 µM.

Take `Cc1ncc(-c2nc(NC3CCN(C(=O)OC(C)(C)C)CC3)ncc2F)n1C1CCOCC1` [Example 33, tert-Butyl 4-({5-fluoro-4-[2-methyl-1-(tetrahydro-2H-pyran-4-yl)-1H-imidazol-5-yl]pyrimidin-2-yl}amino)piperidine-1-carboxylate]: the Ki is 0.21 µM.

In the case of `Cc1ncc(-c2nc(NC3CCN(Cc4ccccc4)CC3)ncc2F)n1C1CCOCC1` [Example 37, N-(1-Benzylpiperidin-4-yl)-5-fluoro-4-[2-methyl-1-(tetrahydro-2H-pyran-4-yl)-1H-imidazol-5-yl]pyrimidin-2-amine], the inhibition constant (Ki) is 0.14 µM.

Turning to `Cc1ncc(-c2nc(Nc3ccc(CNCc4ccc(Cl)nc4)nc3)ncc2F)n1C1CCOCC1` [Example 20, N-[6-({[(6-Chloropyridin-3-yl)methyl]amino}methyl)pyridin-3-yl]-5-fluoro-4-[2-methyl-1-(tetrahydro-2H-pyran-4-yl)-1H-imidazol-5-yl]pyrimidin-2-amine], the Ki is 0.037 µM.

Turning to `Cc1ncc(-c2nc(Nc3ccc(CN4CCOCC4)nc3)ncc2F)n1C1CCOCC1` [Example 10, 5-Fluoro-4-[2-methyl-1-(tetrahydro-2H-pyran-4-yl)-1H-imidazol-5-yl]-N-[6-(morpholin-4-ylmethyl)pyridin-3-yl]pyrimidin-2-amine], the Ki is 0.064 µM.

Consider `Cc1ncc(-c2nc(Nc3ccc(CN4CCCN(C)CC4)nc3)ncc2F)n1C1CCOCC1` [Example 13, 5-Fluoro-N-{6-[(4-methyl-1,4-diazepan-1-yl)methyl]pyridin-3-yl}-4-[2-methyl-1-(tetrahydro-2H-pyran-4-yl)-1H-imidazol-5-yl]pyrimidin-2-amine], for which the inhibition constant Ki is 0.29 µM.

`Cc1ncc(-c2nc(NC3CCN(C(=O)C(F)(F)F)CC3)ncc2F)n1C1CCOCC1` [Example 42, 5-Fluoro-4-[2-methyl-1-(tetrahydro-2H-pyran-4-yl)-1H-imidazol-5-yl]-N-[1-(trifluoroacetyl)piperidin-4-yl]pyrimidin-2-amine]: the Ki is 0.091 µM.

For `Cc1ncc(-c2nc(NC3CCN(S(C)(=O)=O)CC3)ncc2F)n1C1CCOCC1` [Example 41, 5-Fluoro-N-[1-(methylsulfonyl)piperidin-4-yl]-4-[2-methyl-1-(tetrahydro-2H-pyran-4-yl)-1H-imidazol-5-yl]pyrimidin-2-amine], the inhibitory constant (Ki) is 0.12 µM.

For the molecule `Cc1ncc(-c2nc(Nc3ccc(CN4CCCC(CO)C4)nc3)ncc2F)n1C1CCOCC1` (centres unmarked) [Example 23, (1-{[5-({5-Fluoro-4-[2-methyl-1-(tetrahydro-2H-pyran-4-yl)-1H-imidazol-5-yl]pyrimidin-2-yl}amino)pyridin-2-yl]methyl}piperidin-3-yl)methanol], the Ki was 0.17 µM.

Consider `Cc1ncc(-c2nc(Nc3ccc(C(F)(F)F)cn3)ncc2F)n1C1CCOCC1` [Example 4, 5-Fluoro-4-[2-methyl-1-(tetrahydro-2H-pyran-4-yl)-1H-imidazol-5-yl]-N-[5-(trifluoromethyl)pyridin-2-yl]pyrimidin-2-amine], for which the Ki is 2.6 µM.

Regarding `Cc1ncc(-c2nc(NC3CCCCC3)ncc2F)n1C1CCOCC1` [Example 36, N-Cyclohexyl-5-fluoro-4-[2-methyl-1-(tetrahydro-2H-pyran-4-yl)-1H-imidazol-5-yl]pyrimidin-2-amine], the Ki was 0.016 µM.

As to `Cc1ncc(-c2nc(Nc3ccc(CN4CCCCC4)nc3)ncc2F)n1C1CCOCC1` [Example 12, 5-Fluoro-4-[2-methyl-1-(tetrahydro-2H-pyran-4-yl)-1H-imidazol-5-yl]-N-[6-(piperidin-1-ylmethyl)pyridin-3-yl]pyrimidin-2-amine], the Ki was 0.26 µM.

Turning to `Cc1ccc(Nc2ncc(F)c(-c3cnc(C)n3C3CCOCC3)n2)cn1` [Example 5, 5-Fluoro-N-(6-methylpyridin-3-yl)-4-[2-methyl-1-(tetrahydro-2H-pyran-4-yl)-1H-imidazol-5-yl]pyrimidin-2-amine], the Ki was 0.028 µM.
